Test results published in US11839873B2, “Valveless fluidic switching flowchip and uses thereof” (Protein Fluidics, Inc., priority 2018, dated 2023).
Residues, ends and D or L forms follow the SMILES beside them. *: point of attachment. Cbz = O=C(OCc1ccccc1)*

Assays:
[1] = test system: HUVECs stimulated with an inflammatory cytokine mixture of TNF-α, IL-1β, and IFN-γ (IL-8, IL-6, MCP-1 upregulation); assay: Multiparametric HUVEC inflammation assay, secreted cytokines quantified by microfluidic flowchip ELISA; type: cell-based, human; conditions: for HUVEC inflammation response as shown by upregulation of IL-8, IL-6, and MCP-1: HUVECs stimulated with TNF-α, IL-1β, IFN-γ mixture for 20 hours at 37° C., concentration dependent effect of compound; for IL-8 expression: HUVECs, compounds added 1 hour prior to inflammatory cytokine mixture, 20 hours at 37° C.
Source text: We present results from a multiparametric primary human cell-based assay that uses immunoassays for secreted cytokines to evaluate the effect of different mediators on inflammatory response. Expression of the inflammation markers from primary human umbilical vein endothelial cells (HUVEC) stimulated with inflammation cytokines (TNF-α, IFN-γ, and IL-1β) was quantified by microfluidic-based ELISAs.
The Capture and Primary antibodies are specific to each immunoassay and matched antibody pairs for the MCP-1, IL-8, and IL-6 assays were obtained from a commercial source (Biolegend, San Diego, CA). The buffers and Stop Solution are common to all three assays and were made using materials obtained from Sigma-Aldrich. The SA-HRP (Becton Dickenson, San Diego, CA) and Substrate (Abcam, Cambridge, MA) were also common to each assay. The Capture Ab's were used at a concentration of 10 μg/ml and made by diluting stock Ab in a Coating Buffer solution containing phosphate buffered saline (PBS). The Primary Ab's were used at a concentration of 1 μg/ml and made by diluting stock Ab in an Assay Buffer solution containing PBS, bovine serum albumin (BSA), and Tween20. The Blocking Buffer consisted of BSA diluted in PBS. The SA-HRP was also diluted in Assay Buffer and used at a concentration of 200 ng/ml. The Substrate solution was used as provided.

[2] = test system: THP-1 cells stimulated with PMA and LPS (IL-8, IL-1β, TNFα secretion); assay: THP-1 cell cytokine secretion assay, microfluidic flowchip ELISA; type: cell-based, human; conditions: for THP-1 cellular inflammation response as shown by upregulation of IL-8: THP-1 cells stimulated with PMA and LPS for 20 hours at 37° C., concentration dependent effect of compound; for cytokine expression: THP-1 cells treated with compound prior to PMA and LPS activation, cytokine secretion quantified
Procedure: THP-1 cells were stimulated with PMA and LPS for 48 hours. […] To evaluate anti-inflammatory compounds, cells were treated with the kinase inhibitors SB202190 and PDTC, and the antibiotic moxifloxacin prior to activation. Then, inhibition of the inflammation responses by those anti-inflammatory compounds was measured by quantifying cytokine secretion.
A microfluidic flowchip was designed containing multiple reservoirs and nodes that accommodate the reagents required to perform an ELISA assay. The assay channel (from Well 3 to Well 9) has a cross-section of 50 μm by 300 μm and length of 25 mm while the other transfer channels have cross-sections of 50 μm by 50 μm. […] The flowchip was made out of COC using injection molding and the bottom surface was sealed with a COC film. Each reservoir has a capacity of ˜30 μl and was filled with 20 μl of the appropriate assay reagent. Assays were performed using a single protocol for all reagents as shown in FIG. 22 carried out in the following order: Capture Antibody (W3), Blocking Buffer (W2), Sample (W1), Primary Antibody (W4), Avidin-HRP (W5), Wash Buffer (Wash), Substrate (W7), and Stop Solution (W6).
The Capture and Primary antibodies are specific to each immunoassay and matched antibody pairs for the IL-8, IL-β, and TNFα assays were obtained from a commercial source (Biolegend, San Diego, CA). The buffers and Stop Solution are common to all three assays and were made using materials obtained from Sigma-Aldrich. The Avidin-HRP (Biolegend, San Diego, CA) and Substrate (Abcam, Cambridge, MA) were also common to each assay. The Capture Ab's were used at a concentration of 10 μg/ml and made by diluting stock Ab in a Coating Buffer solution containing phosphate buffered saline (PBS). The Primary Ab's were used at a concentration of 1 μg/ml and made by diluting stock Ab in an Assay Buffer solution containing PBS, bovine serum albumin (BSA), and Tween20. The Blocking Buffer consisted of BSA diluted in PBS. The Avidin-HRP was also diluted in Assay Buffer and used at a concentration of 200 ng/ml. The Substrate solution was used as provided.
Each fluid transfer step, from a source well to a destination well, followed a fluid transfer rule that included a HP portion to move the majority of fluid through a given channel followed by a longer LP portion to empty the source well without emptying the channel as described previously. The HP portion typically was between 5 and 20 sec while the LP portion typically was between 30 and 300 sec. Incubation in the assay channel was done using a different fluid transfer rule that included successive short HP transfers followed by a delay between transfers to allow interaction of the reagents with the assay channel walls. […]

`N#CC(C#N)=Cc1ccc([N+](=O)[O-])c(O)c1` [AG-126] was tested, and the “HUVEC inflammation response as shown by upregulation of IL-8, IL-6, and MCP-1” value (“HUVEC inflammation response as shown” below) [1] was “clearly diminished” and the IL-8 expression [1] was “reduced at similar concentrations”.

For `CC(C)C[C@@H](C=O)NC(=O)[C@H](CC(C)C)NC(=O)[C@H](CC(C)C)NC(=O)OCc1ccccc1` [MG-132] (Cbz-Leu-Leu-Leu-aldehyde), the “HUVEC inflammation response as shown” value [1] was “clearly diminished” and the IL-8 expression [1] was “not affected within the concentration range studied”.

In the case of `S=C(S)N1CCCC1` [PDTC], the “THP-1 cellular inflammation response as shown by upregulation of IL-8” value [2] is reported as “clearly diminished” and the cytokine expression [2] is reported as “Concentration-dependent decreases”.

With `Oc1ccc(-c2nc(-c3ccncc3)c(-c3ccc(F)cc3)[nH]2)cc1` [SB202190] the “HUVEC inflammation response as shown” value [1] was “clearly diminished”, the IL-8 expression [1] was “reduced at similar concentrations” and the “THP-1 cellular inflammation response as shown by upregulation of IL-8” value [2] was “clearly diminished”. The cytokine expression [2] was “Concentration-dependent decreases”.
